Measurements: patent US20250025543A1, “DRUG FOR TREATING AND/OR PREVENTING CANCER AND USE THEREOF” (YUANBEN (ZHUHAI HENGQIN) BIOTECHNOLOGY CO., LTD., priority 2021, published 2025)
Like-named read-outs stand apart in the source and are kept apart here.

Tests used:
MC38 colon cancer [1] = assay: Vaccine prepared by three-step purification in treatment of MC38 colon cancer alone, compared with anti-PD-1 antibody (Example 3); format: in vivo, C57 BL/6J mice
MC38 colon cancer [2] = test system: MC38 colon cancer
Procedure: Mice were weighed and randomly divided into groups of 6. MC38 colon cancer cells were diluted with an IMDM basal medium and inoculated in the right axilla of the C57BL/J mice according to 5×10^5 cells/mouse, with a total amount of 100 μL/mouse, for modeling. After the tumor diameter reached 5 mm, the mice were divided into 4 groups, namely a normal saline control group (NS group), an immune checkpoint inhibitor anti-PD-1 antibody injection group (PD-1 group), a recombinant MBP-MUC1-N fusion protein vaccine group (vaccine group), and a recombinant MBP-MUC1-N fusion protein vaccine formulation in combination with immune checkpoint inhibitor anti-PD1 antibody group (combination group). On day 3, day 7, day 10, day 14, and day 17 of tumor bearing, the recombinant MBP-MUC1-N fusion protein vaccine formulation was intramuscularly injected at a dose of 100 μg/mouse (diluted with NS, with a total amount of 200 μL) for immunization, and the immune checkpoint inhibitor anti-PD-1 antibody was intraperitoneally injected at a dose of 250 μg/mouse (diluted with NS, with a total amount of 500 tL/mouse).
(§1) The tumor graft inhibition rate and the tumor inhibition rate of the subcutaneous colon cancer in each group were calculated. The formula is as follows: [tumor inhibition rate=(mean tumor weight in control group −mean tumor weight in experimental group)/mean tumor weight in control group×100%]. [tumor cure rate=(number of mice without tumor/total number of mice)×100%].

MC38 colon cancer [3] = details: for Tumor cure rate: groups of 8; for Tumor inhibition rate: vs NS control group
Procedure: as §1
Mice were weighed and randomly divided into groups of 8. MC38 colon cancer cells were diluted with an IMDM basal medium and inoculated in the right axilla of the C57BL/J mice according to 5×10^5 cells/mouse, with a total amount of 100 μL/mouse, for modeling. After the tumor diameter reached 5 mm, the mice were divided into 4 groups, namely a normal saline control group (NS group), an oxaliplatin injection group (oxaliplatin group), a recombinant MBP-MUC1-N fusion protein vaccine group (vaccine group), and an oxaliplatin in combination with recombinant MBP-MUC1-N fusion protein vaccine formulation group (combination group). On day 3, day 7, day 10, day 14, and day 17 of tumor bearing, the recombinant MBP-MUC1-N fusion protein vaccine formulation was intramuscularly injected at a dose of 100 pg/mouse (diluted with NS, with a total amount of 200 μL) for immunization, and oxaliplatin was intraperitoneally injected at a dose of 3 mg/kg (diluted with 12% DMSO).

Row | Compound | Tumor volume (MC38 colon cancer [1]; 3 days after injection) | Tumor volume (MC38 colon cancer [1]; 7 days after injection) | Tumor volume (MC38 colon cancer [1]; 10 days after injection) | Tumor weight (MC38 colon cancer [1]; MC38 tumor-bearing mice, vaccine 50 μg/mouse i.m., anti-PD-1 antibody 200 μg/mouse i.p., day 3, 7, 10, 14 of tumor bearing) | Tumor cure rate (MC38 colon cancer [1]; groups of 10) | Tumor inhibition rate (MC38 colon cancer [1]; vs PBS control group) | Tumor weight (MC38 colon cancer [2]; MC38 tumor-bearing mice, vaccine 100 μg/mouse i.m., anti-PD-1 antibody 250 μg/mouse i.p., day 3, 7, 10, 14, 17 of tumor bearing) | Tumor inhibition rate (MC38 colon cancer [2]; from mean tumor weight vs NS control group) | Tumor cure rate (MC38 colon cancer [2]; number of mice without tumor/total number of mice, groups of 6) | Tumor cure rate (MC38 colon cancer [3]) | Tumor inhibition rate (MC38 colon cancer [3]) | Tumor volume (MC38 colon cancer [3]; 5 days after injection) | Tumor volume (MC38 colon cancer [3]; 7 days after injection) | Survival time of the mice suffering from the cancer (MC38 colon cancer [3]; MC38 tumor-bearing mice, FIG. 3)
1 | Vaccine group: recombinant fusion protein of maltose-binding protein MBP and human mucin MUC1-N in tandem (SEQ ID NO. 3), as vaccine | 0.41+0.17 cm^3 | 1.11+0.83 cm^3 | 1.53+0.55 cm^3 | 1.53 ± 0.55 g | 40% | 40% | 1.96 ± 0.80 g | 26% | 0% | 0% | 27% |  |  | 
2 | O=C1[O][Pt]2([NH][C@@H]3CCCC[C@H]3[NH]2)[O]C1=O [Oxaliplatin group, oxaliplatin] |  |  |  |  |  |  |  |  |  | 12.5% | 50% | 0.46 ± 0.12 cm^3 | 0.81 ± 0.20 cm^3 | 29 days
